ChEMBL document CHEMBL5104182, “Design and Synthesis of a 2-Amino-pyridine Derivative as a Potent CDK8 Inhibitor for Anti-colorectal Cancer Therapy” (J Med Chem, 2022)

What was measured:
[1] = Cytotoxicity against human GES1 cells assessed as cell viability incubated for 48 hrs by MTT assay; assay type: toxicity, cell-based
SW480 = assay: Antiproliferative activity against human SW480 cells assessed as cell viability incubated for 48 hrs by MTT assay; assay type: functional
HCT-116 = assay: Antiproliferative activity against human HCT-116 cells assessed as cell viability incubated for 48 hrs by MTT assay; assay type: functional
CT26 = assay: Antiproliferative activity against […] cells assessed as cell viability incubated for 48 hrs by MTT assay; assay type: functional; details: Mus musculus
HT-29 = assay: Antiproliferative activity against human HT-29 cells assessed as cell viability incubated for 48 hrs by MTT assay; assay type: functional
[2] = target: T1, Cyclin-dependent kinase 8 (Homo sapiens, UniProt P49336); assay: Inhibition of CDK8 (unknown origin) assessed as inhibition rate
[3] = target: T1, Cyclin-dependent kinase 8; details: dose 200.0 nM

T1 sequence (P49336 whole entry): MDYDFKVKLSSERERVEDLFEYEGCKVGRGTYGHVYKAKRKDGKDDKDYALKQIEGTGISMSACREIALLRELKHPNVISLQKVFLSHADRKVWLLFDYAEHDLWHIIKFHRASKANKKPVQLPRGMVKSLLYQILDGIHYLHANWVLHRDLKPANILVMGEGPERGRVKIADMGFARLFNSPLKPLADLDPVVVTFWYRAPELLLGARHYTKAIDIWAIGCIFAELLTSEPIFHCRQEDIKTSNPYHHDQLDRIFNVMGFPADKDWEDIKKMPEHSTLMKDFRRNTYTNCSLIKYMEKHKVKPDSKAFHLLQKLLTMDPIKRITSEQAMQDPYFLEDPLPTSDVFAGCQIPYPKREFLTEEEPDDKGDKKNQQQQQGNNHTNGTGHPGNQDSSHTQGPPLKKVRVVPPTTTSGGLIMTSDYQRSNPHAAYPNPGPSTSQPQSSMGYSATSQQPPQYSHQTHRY

Compound	GI50 (SW480) [µM]	GI50 (HCT-116) [µM]	GI50 (CT26) [µM]	GI50 (HT-29) [µM]	IC50 [2] [µM]	inhibition [3] [%]	GI50 at 48 h [1] [µM]
Nc1ccc(Oc2cccc(NC(=O)Nc3ccc(F)c(Cl)c3)c2)cn1	17.9	4	23.5	19.1	–	–	31.3
Nc1ccc(Oc2ccc(NC(=O)Nc3cccc(Cl)c3Cl)cc2)cn1	77.5	54.6	88.2	18.8	–	–	> 100
COc1cccc(NC(=O)Nc2ccc(Oc3ccc(N)nc3)cc2)c1	22.5	20.4	> 100	9	–	–	43.2
Nc1ccc(Oc2ccc(NC(=O)Nc3cccc(Br)c3)cc2)cn1	14	> 100	35.6	> 100	–	–	> 100
Nc1ccc(Oc2cccc(NC(=O)Nc3ccccc3F)c2)cn1	43	34.4	83.1	27.5	–	–	43.6
Nc1ccc(Oc2cccc(NC(=O)Nc3cccc(Br)c3)c2)cn1	29.6	21.3	44.5	50	–	–	> 100
O=C(Nc1ccc(Oc2cnc3[nH]ccc3c2)cc1)Nc1cccc(Cl)c1	30.7	90.1	20.9	41.1	–	–	–
Cc1ccc(NC(=O)Nc2cccc(Oc3ccc(N)nc3)c2)cc1	> 100	> 100	> 100	19	–	–	> 100
Nc1ccc(Oc2ccc(NC(=O)Nc3cccc(F)c3)cc2)cn1	45.2	70.9	66.7	49.9	–	–	> 100
CC(=O)Nc1ccc(Oc2ccc(NC(=O)Nc3cccc(C(F)(F)F)c3)cc2)cn1	18.4	1.8	42.7	8.6	–	–	28.2
Nc1ccc(Oc2cccc(NC(=O)Nc3ccc(Cl)c(Cl)c3)c2)cn1	29.2	7.6	32.4	30.3	–	–	> 100
Nc1ccc(Oc2cccc(NC(=O)Nc3ccc(F)c(C(F)(F)F)c3)c2)cn1	12.8	7.4	25.5	7.7	–	–	39.1
Cc1ccc(NC(=O)Nc2cccc(Oc3ccc(N)nc3)c2)cc1Cl	> 100	> 100	> 100	> 100	–	–	> 100
Nc1ccc(Oc2cccc(NC(=O)Nc3cccc(Cl)c3)c2)cn1	44.2	29.7	70.4	36.1	–	–	> 100
Nc1ccc(Oc2ccc(NC(=O)Nc3ccc(F)c(C(F)(F)F)c3)cc2)cn1	15.5	11.2	7.4	8.5	–	–	52.5
O=C(Nc1cccc(Oc2cnc3[nH]ccc3c2)c1)Nc1ccc(Cl)c(C(F)(F)F)c1	100	53.2	> 100	100	–	–	–
Cc1ccc(NC(=O)Nc2ccc(Oc3cnc4[nH]ccc4c3)cc2)cc1C(F)(F)F	30.1	> 100	55.2	39.8	–	–	24
Nc1ccc(Oc2ccc(NC(=O)Nc3cccc(Cl)c3)cc2)cn1	13.2	12.5	> 100	8.5	–	–	65.5
CNC(=O)c1cc(Oc2ccc(NC(=O)Nc3ccc(Cl)c(C(F)(F)F)c3)cc2)ccn1 [SORAFENIB]	14.7	19.8	30.2	25.6	–	–	28.9
Cc1cccc(NC(=O)Nc2cccc(Oc3ccc(N)nc3)c2)c1	66.3	26.6	> 100	41.5	–	–	> 100

Continued by falling GI50 (SW480), values first:

GI50 (SW480) [µM]	GI50 (HCT-116) [µM]	GI50 (CT26) [µM]	GI50 (HT-29) [µM]	IC50 [2] [µM]	inhibition [3] [%]	Compound	GI50 at 48 h [1] [µM]
12.5	37.4	> 100	59.4	–	–	Cc1cccc(NC(=O)Nc2ccc(Oc3ccc(N)nc3)cc2)c1	> 100
10.9	> 100	52.3	> 100	–	–	Nc1ccc(Oc2cccc(NC(=O)Nc3ccc(F)cc3)c2)cn1	> 100
10.4	1.7	6.9	2.5	–	–	Nc1ccc(Oc2cccc(NC(=O)Nc3cccc(C(F)(F)F)c3)c2)cn1	> 100
10.4	9.6	11.3	7.8	0.0385	79	Cn1cc(-c2ccc(-c3cncc(Cl)c3N3CCC4(CCNC4=O)CC3)cc2)cn1	42.7
9.1	9.5	5.2	8.1	–	–	Nc1ccc(Oc2cccc(NC(=O)Nc3ccc(Cl)c(C(F)(F)F)c3)c2)cn1	10.2
8.2	43.6	10.3	16.7	–	–	Nc1ccc(Sc2ccc(NC(=O)Nc3cccc(C(F)(F)F)c3)cc2)cn1	> 100
3.9	15.7	12.9	3.4	–	–	Nc1ccc(Oc2ccc(NC(=O)Nc3ccc(Cl)c(C(F)(F)F)c3)cc2)cn1	26.8
2.5	8	8.7	1.1	–	–	O=C(Nc1cccc(Oc2cnc3[nH]ccc3c2)c1)Nc1cccc(C(F)(F)F)c1	40.7
1.9	–	5.3	2.1	–	–	O=C(Nc1ccc(Oc2cnc3[nH]ccc3c2)cc1)Nc1cccc(C(F)(F)F)c1	–
1.4	–	8.3	2.3	–	–	O=C(Nc1ccc(Oc2cnc3[nH]ccc3c2)cc1)Nc1ccc(Cl)c(C(F)(F)F)c1	–
